Patent US8557831B2, “Compositions and methods for treatment and prevention of insulin resistance” (University of Florida Research Foundation, Inc., priority 2004, dated 2013)

Legend:
[1] = system: Male Sprague-Dawley rats; assay: Serum uric acid concentration in oxonic acid-induced hyperuricemia rat model; type: in vivo
Method: (§1) Male Sprague-Dawley rats were housed in standard conditions and fed normal diets. Hyperuricemia was induced with an uricase inhibitor, oxonic acid (OA; 750 mg/kg/day), by gavage, with control rats receiving vehicle. Allopurinol (AP) was used to block hyperuricemia by placing AP in the drinking water (150 mg/L). Rats were divided into four groups: (1) Control, (2) AP only, (3) OA only, and (4) OA+AP. Systolic blood pressure was measured using a tail-cuff sphygmomanometer. The amount of drinking water consumed and changes in body weight were noted. Rats were sacrificed at one and seven days. Serum was analyzed for uric acid concentration and nitrites/nitrates (NOx) by chemiluminescence method. (Prabhakar S S: Inhibition of mesangial iNOS by reduced extracellular pH is associated with uncoupling of NADPH oxidation. Kidney Int 61:2015-2024, 2002). Statistical analysis between subgroups was performed using ANOVA.

[2] = system: Male Sprague-Dawley rats; assay: Serum nitrites/nitrates (NOx) by chemiluminescence method in hyperuricemic rats; type: in vivo, rat
Method: as §1

[3] = system: Male Sprague-Dawley rats; assay: Systolic blood pressure by tail-cuff sphygmomanometer in hyperuricemic rats; type: in vivo, rat; settings: 7 days, p=NS

| SMILES | serum uric acid ([1]; OA+AP group (AP 150 mg/L in drinking water), 7 days) [mg/dL] | serum uric acid ([1]; OA+AP group (AP 150 mg/L in drinking water), day 1) [mg/dL] | change in serum UA concentration ([1]; rats treated with AP alone) | serum nitrites and nitrates (NOx) ([2]; OA+AP group, 1 day) [µmol/L] | serum nitrites and nitrates (NOx) ([2]; OA+AP group, 7 days) [µmol/L] | change in serum NOx concentration ([2]; rats treated with AP alone) | serum uric acid ([1]; OA only group, 750 mg/kg/day by gavage, 1 day) [mg/dL] | serum uric acid ([1]; OA only group, 750 mg/kg/day by gavage, 7 days) [mg/dL] | serum nitrites and nitrates (NOx) ([2]; OA only group, 1 day) [µmol/L] | serum nitrites and nitrates (NOx) ([2]; OA only group, 7 days) [µmol/L] | reduction of serum nitrites and nitrates (NOx) vs. Control ([2]; hyperuricemic (OA) rats, at both 1 day and 7 days) | systolic blood pressure [3] [mm Hg] |
| --- | --- | --- | --- | --- | --- | --- | --- | --- | --- | --- | --- | --- |
| Oc1ncnc2[nH]ncc12 [AP, Allopurinol] | 0.3 ± 0.2 | 1.52 ± 0.3 | did not show a significant change | 17.4 ± 0.8 | 25.0 ± 0.8 | did not show a significant change |  |  |  |  |  |  |
| O=C(O)c1nc(=O)[nH]c(=O)[nH]1 [OA, oxonic acid] |  |  |  |  |  |  | 1.7 ± 0.7 | 1.8 ± 0.4 | 15.6 ± 0.4 | 14.6 ± 1.1 | 40-50% | 178±18 |
